This note sets out measurements from US20250320496A1, “MODULATION OF ABCB11 GENE TRANSCRIPTION USING ANTISENSE OLIGONUCLEOTIDES TARGETING REGULATORY RNAS” (CAMP4 Therapeutics Corporation, priority 2022, published 2025).

Strand notation (5' to 3'): a small letter for the sugar, then the base; units joined by * are phosphorothioate-linked, units joined directly phosphodiester-linked; [ ] holds rarer units or linkages, { } end groups; capitals alone tell only the bases. e = 2'-O-(2-methoxyethyl) (MOE); [5mC] = 5-methylcytosine

In the data set the test system is human ABCB11 mRNA. Nature of the data set: ASO treatment of primary human hepatocytes (PHH), ABCB11 mRNA by RT-qPCR normalized to B2M. The format is cell-based. Conditions: primary human hepatocytes, 5 μM ASO, normalized to untreated PHHs (UNT). Here is the method: Primary human hepatocytes (PHH) were thawed using Lonza Human Cryopreserved Hepatocyte Thawing Medium and plated in 96-well collagen-coated plates (5.5-6.0×10^4 cells per well). Four hours later, the media was replaced with sterile-filtered QualGro™ Hepatocyte Culture Medium (BioIVT) containing antibiotic supplement, 0.3 mg/ml Matrigel® matrix (Corning®), and ASO at the desired concentration (e.g., 1.25 μM, 2.5 μM, 5 μM, or 10 μM). After 72 hrs., cells were harvested by aspirating media, washing once with phosphate-buffered saline (PBS), and lysed with 150 μl of Buffer RLT lysis buffer (Qiagen®). Plates were frozen at-80° C. during cell lysis. After thawing, total RNA was isolated using the Qiagen RNEasy kit as instructed by manufacturer. cDNA (random-primed) was synthesized from 10 μl of RNA using the LifeTech High Capacity cDNA Reverse Transcription kit. 2 μl of cDNA was used for reverse transcription-quantitative PCR (RT-qPCR) analyses using standard Taqman” reagents from Applied Biosystems™ to measure ABCB11 and CYP7A1 gene expression. Gene expression data was normalized to the housekeeper gene, beta-2-microglobulin (B2M).
To assess the ability of ASOs targeting ABCB11 regRNAs to modulate the expression of human ABCB11, 195 ASOs targeting the human ABCB11 regRNAs were synthesized. These initial ASOs were screened in PHHs at 5 μM to determine their efficacy in increasing human ABCB11 mRNA using quantitative PCR. This initial screen identified 10 ASOs that induced increased expression of ABCB11 mRNA by more than 1.5-fold (as compared to untreated PHHs).
For “CO-4031 (antisense eG*eG*e[5mC]*eT*eT*e[5mC]*e[5mC]*eT*e[5mC]*eA*eA*eA*eT*eT*e[5mC]*eA*eT*eA*eT*eT)”, the “ABCB11 mRNA FC (5 μM ASO vs. UNT)” value turned out to be 1.427 fold change. Regarding “CO-4032 (antisense eA*eG*eT*e[5mC]*e[5mC]*eA*eT*eT*eA*eT*eT*eT*e[5mC]*e[5mC]*eT*e[5mC]*eT*eG*eG*e[5mC])”, the “ABCB11 mRNA FC (5 μM ASO vs. UNT)” value was 1.311 fold change. “CO-4033 (antisense eG*eA*eA*eA*e[5mC]*e[5mC]*eT*eT*eT*eT*eA*eA*e[5mC]*eT*e[5mC]*eT*e[5mC]*e[5mC]*eA*e[5mC])”: the “ABCB11 mRNA FC (5 μM ASO vs. UNT)” value turned out to be 1.472 fold change. As to “CO-4034 (antisense e[5mC]*eG*eA*eG*eG*eT*eT*eG*eG*eA*eA*eA*eA*eG*eG*eT*eT*eG*eT*eG)”, the “ABCB11 mRNA FC (5 μM ASO vs. UNT)” value stood at 0.792 fold change. As for “CO-4035 (antisense eG*eT*eT*e[5mC]*eA*eG*eT*eG*e[5mC]*eT*eT*eT*eA*eG*eA*eA*eT*eG*eA*eT)”, the “ABCB11 mRNA FC (5 μM ASO vs. UNT)” value was found to be 0.926 fold change.

As to “CO-4036 (antisense eG*e[5mC]*eA*eA*eA*eT*eA*eG*eA*eT*eA*eA*eT*eG*eT*eT*e[5mC]*eT*eT*eG)”, the “ABCB11 mRNA FC (5 μM ASO vs. UNT)” value was 1.235 fold change.

Turning to “CO-4037 (antisense eG*eG*eG*eA*e[5mC]*eA*eT*eT*eG*eA*eT*e[5mC]*e[5mC]*eT*eT*eA*eG*eG*e[5mC]*eA)”, the “ABCB11 mRNA FC (5 μM ASO vs. UNT)” value is 0.697 fold change. The figure for “CO-4038 (antisense e[5mC]*eT*e[5mC]*eG*eT*eA*eT*eG*eT*e[5mC]*eA*e[5mC]*eT*eG*eA*eA*e[5mC]*eT*eG*eT)” is 1.701 fold change; for “CO-4039 (antisense eG*eG*eT*eT*eA*eT*eT*eG*e[5mC]*eT*e[5mC]*eT*eG*eA*eG*eT*eA*eT*eG*eT)” it is 1.022 fold change; for “CO-4040 (antisense eG*eT*eT*eT*e[5mC]*e[5mC]*e[5mC]*eA*eA*eG*e[5mC]*eA*e[5mC]*eA*e[5mC]*eT*e[5mC]*eT*eG*eT)” it is 0.921 fold change.

As to “CO-4041 (antisense eT*e[5mC]*e[5mC]*eA*eA*eG*eG*e[5mC]*e[5mC]*eT*eG*eT*eT*eG*eA*e[5mC]*eA*e[5mC]*e[5mC]*e[5mC])”, the “ABCB11 mRNA FC (5 μM ASO vs. UNT)” value is listed as 0.963 fold change. On to “CO-4042 (antisense e[5mC]*eT*e[5mC]*eT*e[5mC]*eG*eT*eT*e[5mC]*e[5mC]*eA*eA*eG*eG*eT*eG*eA*eA*eT*e[5mC])”, for which the “ABCB11 mRNA FC (5 μM ASO vs. UNT)” value was found to be 0.605 fold change. As for “CO-4043 (antisense eG*e[5mC]*e[5mC]*e[5mC]*eA*e[5mC]*eT*e[5mC]*eT*eG*e[5mC]*eT*e[5mC]*eA*eA*eT*eT*eT*eG*e[5mC])”, the “ABCB11 mRNA FC (5 μM ASO vs. UNT)” value was 1.934 fold change. The figure for “CO-4044 (antisense eG*eT*eT*eG*eG*eG*eA*eT*eA*eG*e[5mC]*e[5mC]*eT*eG*eA*eA*eT*eT*e[5mC]*e[5mC])” is 0.974 fold change; for “CO-4045 (antisense eA*e[5mC]*eT*eT*eT*eT*e[5mC]*eA*e[5mC]*eA*eA*e[5mC]*eT*eA*e[5mC]*eA*eG*eG*e[5mC]*e[5mC])” it is 0.815 fold change. “CO-4046 (antisense eG*eG*eG*eAeA*eA*eG*eT*eT*eT*eA*eA*eA*eGeGeT*eA*eT*eT*eT)”: the “ABCB11 mRNA FC (5 μM ASO vs. UNT)” value is given as 1.035 fold change. As to “CO-4047 (antisense eG*e[5mC]*eA*eA*eT*e[5mC]*eT*eT*eT*eT*eA*eT*eA*eT*eT*eG*eA*eG*eG*eG)”, the “ABCB11 mRNA FC (5 μM ASO vs. UNT)” value came out at 0.676 fold change.

For the substance “CO-4048 (antisense eA*eG*e[5mC]*eA*eT*e[5mC]*eT*eG*eG*eA*eT*e[5mC]*e[5mC]*eT*eG*e[5mC]*eA*eA*e[5mC]*e[5mC])”, the “ABCB11 mRNA FC (5 μM ASO vs. UNT)” value stood at 1.448 fold change.

As for “CO-4049 (antisense eG*eT*e[5mC]*eT*e[5mC]*e[5mC]*eA*e[5mC]*eA*eA*eA*eA*e[5mC]*eT*e[5mC]*eT*eA*eT*eA*eG)”, the “ABCB11 mRNA FC (5 μM ASO vs. UNT)” value worked out at 0.889 fold change.

On to “CO-4050 (antisense e[5mC]*eA*eA*eA*eT*eG*eT*eT*e[5mC]*eT*eT*eT*eT*eA*eG*eG*eG*eT*eA*eT)”, for which the “ABCB11 mRNA FC (5 μM ASO vs. UNT)” value is on record as 0.968 fold change. “CO-4051 (antisense eG*eA*e[5mC]*eT*eT*eT*eT*eG*eA*eG*e[5mC]*eA*eA*eG*eG*e[5mC]*eT*eG*eT*eT)”: the “ABCB11 mRNA FC (5 μM ASO vs. UNT)” value was 0.908 fold change. In the case of “CO-4052 (antisense e[5mC]*e[5mC]*eA*eG*eG*eG*eT*eG*e[5mC]*eA*eA*eG*eA*eG*eT*eT*eG*eT*e[5mC]*eT)”, the “ABCB11 mRNA FC (5 μM ASO vs. UNT)” value is reported as 1.054 fold change. “CO-4053 (antisense eG*eA*eG*e[5mC]*eT*eT*e[5mC]*eA*eT*e[5mC]*eT*eG*eG*eT*eG*eT*eG*eT*e[5mC]*e[5mC])”: the “ABCB11 mRNA FC (5 μM ASO vs. UNT)” value amounted to 1.218 fold change. The figure for “CO-4054 (antisense e[5mC]*eG*eT*eT*e[5mC]*eA*eT*e[5mC]*eT*eT*eT*eG*e[5mC]*eT*eT*eA*eT*eA*e[5mC]*eA)” is 1.269 fold change; for “CO-4055 (antisense eT*eT*eG*eA*eA*e[5mC]*e[5mC]*eT*eT*eT*eA*eG*eA*eA*eA*eA*eT*e[5mC]*eG*eT)” it is 1.287 fold change; for “CO-4056 (antisense eG*e[5mC]*eT*eT*eA*eT*eT*eT*eG*eA*e[5mC]*eT*e[5mC]*eA*eA*eG*eA*e[5mC]*e[5mC]*eT)” it is 1.115 fold change. Next, “CO-4057 (antisense e[5mC]*eA*eG*e[5mC]*eA*e[5mC]*eA*eA*eA*eT*eA*eT*eA*eT*eT*eG*eG*eA*eG*eG)”: 1.245 fold change; “CO-4058 (antisense eG*eA*eT*eT*e[5mC]*eA*e[5mC]*eA*eA*eG*eA*eA*eG*eG*eG*eA*eG*eA*eG*eG)”: 1.134 fold change. Consider “CO-4059 (antisense eG*eT*eA*eA*eG*e[5mC]*eT*e[5mC]*eA*eG*eG*e[5mC]*eAeA*eA*eG*eG*eA*eG*eA)”, for which the “ABCB11 mRNA FC (5 μM ASO vs. UNT)” value amounted to 1.186 fold change. Next, “CO-4060 (antisense eG*eG*eA*eGeT*eGeA*eGeA*eG*eG*e[5mC]*eA*eT*eT*eT*eA*eG*eG*eG)”: 1.117 fold change; “CO-4061 (antisense eA*eT*eT*e[5mC]*eA*eT*eT*eG*e[5mC]*eT*eG*eA*eA*eG*eG*e[5mC]*eT*eG*eG*eA)”: 1.233 fold change; “CO-4062 (antisense eG*eA*e[5mC]*e[5mC]*eA*eA*eT*eG*eT*eT*eG*e[5mC]*e[5mC]*eT*eA*eT*eT*eA*eT*eT)”: 1.108 fold change.

With “CO-4063 (antisense eG*e[5mC]*eA*e[5mC]*e[5mC]*e[5mC]*eA*eA*e[5mC]*e[5mC]*eA*eA*eG*eT*e[5mC]*eT*eT*eG*eA*e[5mC])”, the “ABCB11 mRNA FC (5 μM ASO vs. UNT)” value amounted to 1.457 fold change.

As to “CO-4480 (antisense e[5mC]*e[5mC]*eT*eG*eA*eG*eA*eT*eT*eG*eA*eG*e[5mC]*eT*eA*eT*eA*e[5mC]*eT*eG)”, the “ABCB11 mRNA FC (5 μM ASO vs. UNT)” value is 0.931 fold change. Regarding “CO-4481 (antisense e[5mC]*eA*eT*e[5mC]*eT*e[5mC]*eT*eG*eT*eG*eA*eA*eT*e[5mC]*eG*e[5mC]*eT*eA*eG*eT)”, the “ABCB11 mRNA FC (5 μM ASO vs. UNT)” value is listed as 1.18 fold change. Consider “CO-4482 (antisense eT*eA*eA*e[5mC]*eT*eG*eG*eG*eA*eG*eT*eA*eT*eA*eG*eA*eG*eG*eA*e[5mC])”, for which the “ABCB11 mRNA FC (5 μM ASO vs. UNT)” value is on record as 1.001 fold change. Next, “CO-4483 (antisense eT*e[5mC]*eA*e[5mC]*eA*eA*eA*eT*eA*eG*eA*eT*eT*eG*eA*eG*eG*eG*eT*e[5mC])”: 1.041 fold change.

Consider “CO-4484 (antisense eG*e[5mC]*eT*eA*eA*eT*e[5mC]*e[5mC]*eA*eA*e[5mC]*e[5mC]*eA*e[5mC]*eT*eT*e[5mC]*eA*eA*e[5mC])”, for which the “ABCB11 mRNA FC (5 μM ASO vs. UNT)” value came out at 1.113 fold change. For the substance “CO-4485 (antisense eG*eT*e[5mC]*eA*eA*eG*eA*eT*e[5mC]*e[5mC]*e[5mC]*e[5mC]*eG*eA*eA*eG*eT*eT*eG*eA)”, the “ABCB11 mRNA FC (5 μM ASO vs. UNT)” value came to 1.194 fold change. As for “CO-4486 (antisense eG*eG*eA*e[5mC]*eT*eG*e[5mC]*eG*eT*eG*eA*e[5mC]*eT*e[5mC]*eA*eG*eG*eT*eT*eA)”, the “ABCB11 mRNA FC (5 μM ASO vs. UNT)” value was 1.151 fold change. On to “CO-4487 (antisense eG*e[5mC]*eA*eA*eG*eG*eT*e[5mC]*e[5mC]*eA*eG*eG*eG*eT*eG*eT*eA*eT*eT*e[5mC])”, for which the “ABCB11 mRNA FC (5 μM ASO vs. UNT)” value stood at 1.052 fold change. As to “CO-4488 (antisense eA*eA*e[5mC]*eA*eT*eG*eT*e[5mC]*eA*eG*eA*e[5mC]*eA*eG*eT*eA*eG*eT*eT*e[5mC])”, the “ABCB11 mRNA FC (5 μM ASO vs. UNT)” value is recorded as 1.084 fold change. Next, “CO-4489 (antisense e[5mC]*eA*e[5mC]*eA*eG*eA*eG*eT*eG*e[5mC]*e[5mC]*eA*eA*eG*eG*eA*eG*eT*eT*eA)”: 1.083 fold change. Next, “CO-4490 (antisense e[5mC]*eG*eA*eG*eA*eA*eA*eA*eT*eG*eA*eG*eG*eT*eA*e[5mC]*eA*eT*eG*eG)”: 1.158 fold change.
